In ChEMBL document CHEMBL1155591, “New anabaenopeptins, potent carboxypeptidase-A inhibitors from the cyanobacterium Aphanizomenon flos-aquae” (J Nat Prod, 2000):
The source made the active and inactive calls. No cut-off for these calls is given here. Starred links: 1 amine or outer side, 2 acyl side, 3 side chain; linkers in the order of their positions; H or OH if unused. Positions of bridges follow the written chain, without caps; N, C: chain ends. Non-standard residues stand in square brackets, D forms with d. Residues, ends and D or L forms follow the SMILES beside them. NMehTyr = CN[C@@H](CCc1ccc(O)cc1)C(=O)O; hTyr = N[C@@H](CCc1ccc(O)cc1)C(=O)O; NMeA = CN[C@@H](C)C(=O)O; CO = O=C([*:1])[*:2]

These molecules were tested against T1, Carboxypeptidase A1 (Homo sapiens) (UniProt P15085) (assay: Inhibition of carboxypeptidase A at 10 ug/ml).
T1 sequence (whole entry): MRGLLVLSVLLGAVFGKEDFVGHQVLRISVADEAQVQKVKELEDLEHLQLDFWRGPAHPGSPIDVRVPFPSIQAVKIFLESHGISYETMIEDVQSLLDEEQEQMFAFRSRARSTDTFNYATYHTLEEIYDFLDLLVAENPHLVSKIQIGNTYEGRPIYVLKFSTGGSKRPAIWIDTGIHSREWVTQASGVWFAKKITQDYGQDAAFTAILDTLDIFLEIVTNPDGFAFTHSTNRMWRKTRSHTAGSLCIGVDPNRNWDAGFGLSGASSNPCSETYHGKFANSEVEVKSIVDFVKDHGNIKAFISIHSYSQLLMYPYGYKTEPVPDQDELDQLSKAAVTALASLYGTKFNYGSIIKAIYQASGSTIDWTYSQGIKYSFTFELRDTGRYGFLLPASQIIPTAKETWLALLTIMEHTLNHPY
For `CC(C)[C@@H]1NC(=O)[C@H](NC(=O)N[C@@H](CCCNC(=N)N)C(=O)O)CCCCNC(=O)[C@H](Cc2ccccc2)NC(=O)[C@H](C)N(C)C(=O)[C@H](CCc2ccc(O)cc2)N(C)C1=O`, the Activity was “inactive”.
With `CC[C@H](C)[C@@H]1NC(=O)[C@H](NC(=O)N[C@@H](CCCNC(=N)N)C(=O)O)CCCCNC(=O)[C@H](Cc2ccccc2)NC(=O)[C@H](C)N(C)C(=O)[C@H](CCc2ccc(O)cc2)NC1=O` ({Arg-CO}-[dK]I[hTyr][NMeA]F; lactam 1-C) the Activity was “inactive”.
For `CC(C)[C@@H]1NC(=O)[C@H](NC(=O)N[C@@H](CCCNC(=N)N)C(=O)O)CCCCNC(=O)[C@H](Cc2ccccc2)NC(=O)[C@H](C)N(C)C(=O)[C@H](CCc2ccc(O)cc2)NC1=O` ({Arg-CO}-[dK]V[hTyr][NMeA]F; lactam 1-C), the Activity was “inactive”.

What follows are molecules tested against T2, Carboxypeptidase A1 (Homo sapiens, UniProt P15085) (assay: Inhibition of carboxypeptidase A).
T2 sequence (P15085 whole entry): T1 sequence (whole entry)
Molecule `CC[C@H](C)[C@@H]1NC(=O)[C@H](NC(=O)N[C@@H](Cc2ccc(O)cc2)C(=O)O)CCCCNC(=O)[C@H]([C@@H](C)CC)NC(=O)[C@H](CCc2ccc(O)cc2)N(C)C(=O)[C@H](CCc2ccc(O)cc2)NC1=O` [ANABAENOPEPTIN G] ({Tyr-CO}-[dK]I[hTyr][NMehTyr]I; lactam 1-C) has an IC50 of 7.53 nM.
With `CC[C@H](C)[C@@H]1NC(=O)[C@H](NC(=O)N[C@@H](CCCNC(=N)N)C(=O)O)CCCCNC(=O)[C@H]([C@@H](C)CC)NC(=O)[C@H](CCc2ccc(O)cc2)N(C)C(=O)[C@H](CCc2ccc(O)cc2)NC1=O` [ANABAENOPEPTIN H] ({Arg-CO}-[dK]I[hTyr][NMehTyr]I; lactam 1-C) the IC50 was 3680 nM.
Work on `CC[C@H](C)[C@H](NC(=O)N[C@@H]1CCCCNC(=O)[C@H](CC(C)C)NC(=O)[C@H](C)N(C)C(=O)[C@H](CCc2ccc(O)cc2)NC(=O)[C@H](C(C)C)NC1=O)C(=O)O` [ANABAENOPEPTIN I] ({Ile-CO}-[dK]V[hTyr][NMeA]L; lactam 1-C) yielded an IC50 of 6.84 nM.
In the case of `CC[C@H](C)[C@H](NC(=O)N[C@@H]1CCCCNC(=O)[C@H](Cc2ccccc2)NC(=O)[C@H](C)N(C)C(=O)[C@H](CCc2ccc(O)cc2)NC(=O)[C@H](C(C)C)NC1=O)C(=O)O` [ANABAENOPEPTIN J] ({Ile-CO}-[dK]V[hTyr][NMeA]F; lactam 1-C), the IC50 is reported as 9.57 nM.
In the case of `CC[C@H](C)[C@H](NC(=O)N[C@@H]1CCCCNC(=O)[C@H]([C@@H](C)CC)NC(=O)[C@H](CCc2ccc(O)cc2)N(C)C(=O)[C@H](CCc2ccc(O)cc2)NC(=O)[C@H](C(C)C)NC1=O)C(=O)O` [ANABAENOPEPTIN T] ({Ile-CO}-[dK]V[hTyr][NMehTyr]I; lactam 1-C), the IC50 is reported as 25.4 nM.
